Reference: ChEMBL document CHEMBL1201862, “PubChem BioAssay data set” (2004)
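Step 1: Grow cells in 96-well plates. Step 2: Expose to compound for 48 hours at 5 concentrations. Step 3: Interpolate endpoints linearly; if unreached, use highest concentration. GI50 is the concentration that inhibits growth by half.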 Active and inactive are the calls of the source. No stated cut-off is given here; in the data, active = GI50 up to about 1.1 µM and inactive = higher. Non-standard residues stand in square brackets, D forms with d. Residues, ends and D or L forms follow the SMILES beside them. ξ: configuration not given here. *: point of attachment. NMeF = CN[C@@H](Cc1ccccc1)C(=O)O; NMeV = CN[C@H](C(=O)O)C(C)C; ξNMeV = CNC(C(=O)O)C(C)C; Boc = CC(C)(C)OC(=O)*; OBn = c1ccc(CO*)cc1

Key:
Experiment in all cases: NCI tumour cell line growth inhibition, 48 h
U-251 = test system: U-251
SNB-75 = test system: SNB-75
SF-295 = test system: SF-295
KM12 = test system: KM12
SNB-19 = test system: SNB-19
RPMI-8226 = test system: RPMI-8226
DMS-273 = test system: DMS-273
SF-268 = test system: SF-268
HT-29 = test system: HT-29
HOP-92 = test system: HOP-92
SN12C = test system: SN12C
M14 = test system: M14
OVCAR-5 = test system: OVCAR-5
HL-60 = test system: HL-60
SW-620 = test system: SW-620
Malme-3M = test system: Malme-3M
NCI-H226 = test system: NCI-H226
OVCAR-8 = test system: OVCAR-8
KM-20L2 = test system: KM-20L2
786-0 = test system: 786-0
M19-MEL = test system: M19-MEL
K562 = test system: K562
SNB-78 = test system: SNB-78
XF498 = test system: XF498
LOX IMVI = test system: LOX IMVI
ACHN = test system: ACHN
UACC-257 = test system: UACC-257
SK-OV-3 = test system: SK-OV-3
HOP-18 = test system: HOP-18
UACC-62 = test system: UACC-62
UO-31 = test system: UO-31
SK-MEL-28 = test system: SK-MEL-28
NCI-H23 = test system: NCI-H23
HCT-116 = test system: HCT-116
LXFL 529 = test system: LXFL 529
COLO 205 = test system: COLO 205
MOLT-4 = test system: MOLT-4
SF-539 = test system: SF-539
EKVX = test system: EKVX
SK-MEL-5 = test system: SK-MEL-5
A549 = test system: A549
DLD-1 = test system: DLD-1
SR = test system: SR
CCRF-CEM = test system: CCRF-CEM
HCC 2998 = test system: HCC 2998
SK-MEL-2 = test system: SK-MEL-2
RXF 393 = test system: RXF 393
NCI-H460 = test system: NCI-H460
HCT-15 = test system: HCT-15
DMS-114 = test system: DMS-114
HOP-62 = test system: HOP-62
NCI-H522 = test system: NCI-H522
OVCAR-3 = test system: OVCAR-3
TK-10 = test system: TK-10
IGROV-1 = test system: IGROV-1
A498 = test system: A498
CAKI-1 = test system: CAKI-1
OVCAR-4 = test system: OVCAR-4

Measured: GI50

COC(=O)C1=C(C(=O)OC)C2(C(=O)OC)OC1(OC)C(C1(C(=O)OC)C(C(=O)OC)=C1C(=O)OC)=C2C(=O)OC (configuration not stated)
> 100 µM: HCT-15
inactive: U-251 > 100 µM | SNB-75 > 100 µM | SF-295 > 100 µM | KM12 > 100 µM | SNB-19 > 100 µM | RPMI-8226 > 100 µM | DMS-273 > 100 µM | SF-268 > 100 µM | HT-29 > 100 µM | HOP-92 > 100 µM | SN12C > 100 µM | M14 > 100 µM | OVCAR-5 > 100 µM | HL-60 > 100 µM | SW-620 > 100 µM | Malme-3M > 100 µM | NCI-H226 > 100 µM | OVCAR-8 > 100 µM | KM-20L2 > 100 µM | 786-0 > 100 µM | M19-MEL > 100 µM | K562 > 100 µM | SNB-78 > 100 µM | XF498 > 100 µM | LOX IMVI > 100 µM | ACHN > 100 µM | UACC-257 > 100 µM | SK-OV-3 > 100 µM | HOP-18 > 100 µM | UACC-62 > 100 µM | UO-31 > 100 µM | SK-MEL-28 > 100 µM | NCI-H23 > 100 µM | HCT-116 > 100 µM | LXFL 529 > 100 µM | COLO 205 > 100 µM | MOLT-4 > 100 µM | SF-539 > 100 µM | EKVX > 100 µM | SK-MEL-5 > 100 µM | A549 > 100 µM | DLD-1 > 100 µM | SR > 100 µM | CCRF-CEM > 100 µM | HCC 2998 > 100 µM | SK-MEL-2 > 100 µM | RXF 393 > 100 µM | NCI-H460 > 100 µM | DMS-114 > 100 µM | HOP-62 > 100 µM | NCI-H522 > 100 µM | OVCAR-3 > 100 µM | TK-10 > 100 µM | IGROV-1 > 100 µM

CC(C)C(C(=O)N(C)[C@H](C(=O)N1CCC[C@H]1C(=O)N(C)[C@@H](Cc1ccccc1)C(=O)OCc1ccccc1)C(C)C)N(C)C(=O)[C@@H](NC(=O)OC(C)(C)C)C(C)C (some centres not stated) (Boc-V[ξNMeV][NMeV]P[NMeF]-OBn)
8.65 µM: HCT-15
inactive: U-251 > 31.6 µM | SNB-75 12 µM | SF-295 19.8 µM | KM12 > 10 µM | SNB-19 > 31.6 µM | RPMI-8226 4.97 µM | DMS-273 5.48 µM | SF-268 > 31.6 µM | HT-29 14.2 µM | HOP-92 10.2 µM | SN12C > 100 µM | M14 85.1 µM | OVCAR-5 > 31.6 µM | HL-60 4.58 µM | SW-620 > 31.6 µM | Malme-3M 34.8 µM | NCI-H226 > 63.5 µM | OVCAR-8 > 31.6 µM | KM-20L2 > 31.6 µM | 786-0 > 43.3 µM | M19-MEL 30 µM | K562 4.42 µM | SNB-78 > 31.6 µM | XF498 6.19 µM | LOX IMVI 23.9 µM | A498 19.5 µM | ACHN > 57.4 µM | UACC-257 9.33 µM | SK-OV-3 > 31.6 µM | HOP-18 32.1 µM | UACC-62 > 31.6 µM | UO-31 30.4 µM | SK-MEL-28 > 31.6 µM | NCI-H23 19.5 µM | HCT-116 10.8 µM | LXFL 529 15.1 µM | COLO 205 11.4 µM | MOLT-4 5.37 µM | SF-539 > 31.6 µM | CAKI-1 > 31.6 µM | EKVX > 31.6 µM | SK-MEL-5 7.14 µM | A549 18.7 µM | DLD-1 24.9 µM | SR 7.36 µM | CCRF-CEM 11.2 µM | HCC 2998 > 10 µM | SK-MEL-2 > 31.6 µM | RXF 393 24.6 µM | NCI-H460 15.8 µM | OVCAR-4 > 29.5 µM | DMS-114 11 µM | HOP-62 > 31.6 µM | NCI-H522 > 100 µM | OVCAR-3 15.3 µM | TK-10 29.2 µM | IGROV-1 22.5 µM

CN(C)c1ccc(/C=N\N2C(=O)c3ccccc3C2=O)cc1
> 100 µM: HCT-15
inactive: SNB-75 40.9 µM | SF-295 > 100 µM | KM12 > 100 µM | SNB-19 > 100 µM | RPMI-8226 > 100 µM | DMS-273 > 100 µM | SF-268 > 100 µM | HT-29 > 100 µM | HOP-92 > 100 µM | SN12C > 100 µM | M14 > 100 µM | OVCAR-5 > 100 µM | HL-60 > 100 µM | SW-620 > 100 µM | Malme-3M > 100 µM | NCI-H226 > 100 µM | OVCAR-8 > 100 µM | KM-20L2 > 100 µM | 786-0 > 100 µM | M19-MEL > 100 µM | K562 > 100 µM | SNB-78 > 100 µM | XF498 > 100 µM | LOX IMVI > 100 µM | A498 > 100 µM | ACHN > 100 µM | UACC-257 > 100 µM | HOP-18 > 100 µM | UACC-62 > 100 µM | UO-31 > 100 µM | SK-MEL-28 > 100 µM | NCI-H23 > 100 µM | HCT-116 > 100 µM | LXFL 529 > 100 µM | MOLT-4 > 100 µM | SF-539 > 100 µM | CAKI-1 > 100 µM | EKVX > 100 µM | SK-MEL-5 > 100 µM | A549 > 100 µM | DLD-1 > 100 µM | SR > 100 µM | CCRF-CEM > 100 µM | HCC 2998 > 100 µM | SK-MEL-2 > 100 µM | RXF 393 > 100 µM | NCI-H460 > 100 µM | OVCAR-4 > 100 µM | DMS-114 > 100 µM | HOP-62 > 100 µM | OVCAR-3 > 100 µM | TK-10 > 100 µM | IGROV-1 > 100 µM
